The values below come from patent US10221177B2 (HYDRA BIOSCIENCES, INC., priority 2014, dated 2019).

For the assay, the target named is human TRPA1 (Homo sapiens (Human), UniProt O75762). Put plainly: In vitro inhibition of human TRPA1, whole cell patch configuration. It is filed as cell-based. Conditions: current activation 10 μM AITC, tested concentrations 320 pM to 3.2 μM, read-out: hTRPA1 IC50. The procedure, abridged:
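Whole-cell patch clamp, bath 150 mM NaCl, 10 mM HEPES, 1 mM EGTA, 3 mM MgCl2, pH 7.4 (sometimes 2 mM CaCl2, 1 mM MgCl2). Currents recorded continuously at −60 mV or by 400 ms ramps from −40 mV holding every 4 s; inward/outward currents taken at −80/80 mV, with controlled-temperature focal perfusion.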

human TRPA1, sequence (O75762 whole entry, the tested form may be a part): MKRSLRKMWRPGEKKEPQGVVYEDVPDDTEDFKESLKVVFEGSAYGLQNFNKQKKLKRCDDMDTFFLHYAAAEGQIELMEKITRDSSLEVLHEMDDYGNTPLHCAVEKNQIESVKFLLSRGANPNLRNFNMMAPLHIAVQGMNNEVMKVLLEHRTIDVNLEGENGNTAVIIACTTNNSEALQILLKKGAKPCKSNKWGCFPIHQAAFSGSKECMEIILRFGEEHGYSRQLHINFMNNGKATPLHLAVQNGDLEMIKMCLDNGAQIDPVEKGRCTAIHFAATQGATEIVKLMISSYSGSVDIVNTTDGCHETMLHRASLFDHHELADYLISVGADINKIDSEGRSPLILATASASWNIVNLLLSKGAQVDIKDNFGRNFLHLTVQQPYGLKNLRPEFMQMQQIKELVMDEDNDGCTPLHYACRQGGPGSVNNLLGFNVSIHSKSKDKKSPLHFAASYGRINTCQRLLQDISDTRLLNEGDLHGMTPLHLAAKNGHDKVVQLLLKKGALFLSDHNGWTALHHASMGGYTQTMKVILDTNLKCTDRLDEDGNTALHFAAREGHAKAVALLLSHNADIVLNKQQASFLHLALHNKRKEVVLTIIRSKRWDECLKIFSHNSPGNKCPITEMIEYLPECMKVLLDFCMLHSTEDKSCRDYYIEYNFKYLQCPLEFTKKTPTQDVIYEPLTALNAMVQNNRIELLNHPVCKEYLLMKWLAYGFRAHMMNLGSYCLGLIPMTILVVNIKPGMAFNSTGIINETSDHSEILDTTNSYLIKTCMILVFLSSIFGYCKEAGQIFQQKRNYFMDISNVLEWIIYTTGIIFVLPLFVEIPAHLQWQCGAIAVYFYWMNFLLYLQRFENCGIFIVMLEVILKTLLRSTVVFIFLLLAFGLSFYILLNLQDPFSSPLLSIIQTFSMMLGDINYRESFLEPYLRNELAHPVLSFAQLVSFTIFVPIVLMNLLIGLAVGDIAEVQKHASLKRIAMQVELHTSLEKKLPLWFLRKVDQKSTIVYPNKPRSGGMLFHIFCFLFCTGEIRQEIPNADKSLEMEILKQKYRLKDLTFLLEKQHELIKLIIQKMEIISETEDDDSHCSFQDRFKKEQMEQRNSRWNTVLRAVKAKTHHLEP

Take `CCC(=O)Cn1c(=O)c2c(ncn2CC(=O)Nc2csc(-c3cnc(C)c(C(F)(F)F)c3)n2)n(C)c1=O` [Compound 247, 2-(3-methyl-2,6-dioxo-1-(2-oxobutyl)-2,3-dihydro-1H-purin-7(6H)-yl)-N-(2-(6-methyl-5-(trifluoromethyl)pyridin-3-yl)thiazol-4-yl)acetamide]: the IC50 (usually the concentration that inhibits the measured activity by half) stood at 2 nM.

On to `Cc1cc(Cn2c(=O)c3c(ncn3CC(=O)Nc3cccc(N4CCC(C(F)(F)F)CC4)n3)n(C)c2=O)no1` [Compound 202, 2-(3-methyl-1-((5-methylisoxazol-3-yl)methyl)-2,6-dioxo-2,3-dihydro-1H-purin-7(6H)-yl)-N-(6-(4-(trifluoromethyl)piperidin-1-yl)pyridin-2-yl)acetamide], for which the 50% inhibitory concentration (IC50) is 26 nM.

Regarding `CCC(=O)Cn1c(=O)c2c(ncn2[C@@H](C)C(=O)Nc2csc(-c3cnc(C)c(C(F)(F)F)c3)n2)n(C)c1=O` [Compound 99, (S)-2-(3-methyl-2,6-dioxo-1-(2-oxobutyl)-2,3-dihydro-1H-purin-7(6H)-yl)-N-(2-(6-methyl-5-(trifluoromethyl)pyridin-3-yl)thiazol-4-yl)propanamide], the IC50 came out at 1 nM.

As to `C[C@@H](C(=O)Nc1ccnc(-c2ccc(N3CC4CC4C3)nc2)n1)n1cnc2c1c(=O)n(CC#N)c(=O)n2C` (stereo partly drawn) [Compound 53, (2S)—N-(2-(6-(3-azabicyclo[3.1.0]hexan-3-yl)pyridin-3-yl)pyrimidin-4-yl)-2-(1-(cyanomethyl)-3-methyl-2,6-dioxo-2,3-dihydro-1H-purin-7(6H)-yl)propanamide], the IC50 was found to be 14 nM.

Regarding `CC(=O)Cn1c(=O)c2c(ncn2[C@@H](C)C(=O)Nc2csc(-c3cnc(C(F)(F)F)c(C)c3)n2)n(C)c1=O` [Compound 82, (S)-2-(3-methyl-2,6-dioxo-1-(2-oxopropyl)-2,3-dihydro-1H-purin-7(6H)-yl)-N-(2-(5-methyl-6-(trifluoromethyl)pyridin-3-yl)thiazol-4-yl)propanamide], the IC50 was determined as 5 nM.

With `Cc1cc(Cn2c(=O)c3c(ncn3CC(=O)Nc3ccc(N4CCC(C(C)(C)F)CC4)cn3)n(C)c2=O)no1` [Compound 220, N-(5-(4-(2-fluoropropan-2-yl)piperidin-1-yl)pyridin-2-yl)-2-(3-methyl-1-((5-methylisoxazol-3-yl)methyl)-2,6-dioxo-2,3-dihydro-1H-purin-7(6H)-yl)acetamide], the 50% inhibitory concentration (IC50) stood at 72 nM.

As to “(S)-2-(3-methyl-1-((3-methyl-1,2,4-oxadiazol-5-yl)methyl)-2,6-dioxo-2,3-dihydro-1H-purin-7(6H)-yl)-N-(5′-methyl-6′-(trifluoromethyl)-[2,3′-bipyridin]-6-yl)propanamide [Compound 134]”, the half-inhibitory concentration (IC50) amounted to 3 nM.

As to `CCC(=O)Cn1c(=O)c2c(ncn2[C@@H](C)C(=O)Nc2ccnc(-c3ccc(N4CC5C(C4)C5(F)F)nc3)n2)n(C)c1=O` (stereo partly drawn) [Compound 70, (2S)—N-(2-(6-(6,6-difluoro-3-azabicyclo[3.1.0]hexan-3-yl)pyridin-3-yl)pyrimidin-4-yl)-2-(3-methyl-2,6-dioxo-1-(2-oxobutyl)-2,3-dihydro-1H-purin-7(6H)-yl)propanamide], the half-inhibitory concentration (IC50) was 5 nM.

Consider `CC(=O)Cn1c(=O)c2c(ncn2[C@@H](C)C(=O)Nc2ccnc(-c3ccc(N4CC5C(C4)C5(F)F)nc3)n2)n(C)c1=O` (stereo partly drawn) [Compound 69, (2S)—N-(2-(6-(6,6-difluoro-3-azabicyclo[3.1.0]hexan-3-yl)pyridin-3-yl)pyrimidin-4-yl)-2-(3-methyl-2,6-dioxo-1-(2-oxopropyl)-2,3-dihydro-1H-purin-7(6H)-yl)propanamide], for which the IC50 worked out at 7 nM.

In the case of `CC#CCn1c(=O)c2c(ncn2[C@@H](C)C(=O)Nc2csc(-c3cnc(N4CC5C(C4)C5(F)F)nc3)n2)n(C)c1=O` (stereo partly drawn) [Compound 267, (2S)-2-(1-(but-2-ynyl)-3-methyl-2,6-dioxo-2,3-dihydro-1H-purin-7(6H)-yl)-N-(2-(2-(6,6-difluoro-3-azabicyclo[3.1.0]hexan-3-yl)pyrimidin-5-yl)thiazol-4-yl)propanamide], the IC50 is 2 nM.

On to `C[C@@H](C(=O)Nc1cccc(-c2ccc(C(F)(F)F)nc2)n1)n1cnc2c1c(=O)n(Cc1ccccn1)c(=O)n2C` [Compound 1, (2S)-2-(3-methyl-2,6-dioxo-1-(pyridin-2-ylmethyl)-1,2,3,6-tetrahydropurin-7-yl)-N-(6-(6-(trifluoromethyl)pyridin-3-yl)pyridin-2-yl)propanamide], for which the IC50 was 28 nM.

`CCCC(=O)Cn1c(=O)c2c(ncn2[C@@H](C)C(=O)Nc2cccc(-c3cnc(C(F)(F)F)nc3)n2)n(C)c1=O` [Compound 52, (S)-2-(3-methyl-2,6-dioxo-1-(2-oxopentyl)-2,3-dihydro-1H-purin-7(6H)-yl)-N-(6-(2-(trifluoromethyl)pyrimidin-5-yl)pyridin-2-yl)propanamide]: the IC50 was found to be 23 nM.

As for `Cc1noc(Cn2c(=O)c3c(ncn3[C@@H](C)C(=O)Nc3csc(-c4cnc(N5CC6CC6C5)nc4)n3)n(C)c2=O)n1` (stereo partly drawn) [Compound 166, (2S)—N-(2-(2-(3-azabicyclo[3.1.0]hexan-3-yl)pyrimidin-5-yl)thiazol-4-yl)-2-(3-methyl-1-((3-methyl-1,2,4-oxadiazol-5-yl)methyl)-2,6-dioxo-2,3-dihydro-1H-purin-7(6H)-yl)propanamide], the IC50 came to 6 nM.

As for `Cc1cc(Cn2c(=O)c3c(ncn3CC(=O)Nc3ccc(C#N)c(C(F)(F)F)n3)n(C)c2=O)no1` [Compound 201, N-(5-cyano-6-(trifluoromethyl)pyridin-2-yl)-2-(3-methyl-1-((5-methylisoxazol-3-yl)methyl)-2,6-dioxo-2,3-dihydro-1H-purin-7(6H)-yl)acetamide], the half-inhibitory concentration (IC50) was 309 nM.

As to `Cc1noc(Cn2c(=O)c3c(ncn3[C@@H](C)C(=O)Nc3cccc(-c4cnc(C(F)(F)F)c(C)c4)n3)n(C)c2=O)n1` [Compound 131, (S)-2-(3-methyl-1-((3-methyl-1,2,4-oxadiazol-5-yl)methyl)-2,6-dioxo-2,3-dihydro-1H-purin-7(6H)-yl)-N-(5′-methyl-6′-(trifluoromethyl)-[2,3′-bipyridin]-6-yl)propanamide], the half-inhibitory concentration (IC50) was found to be 6 nM.

Take `Cn1c(=O)n(Cc2ccccn2)c(=O)c2c1ncn2CC(=O)Nc1cccc(-c2cnc(C(F)(F)F)nc2)n1` [Compound 186, 2-(3-methyl-2,6-dioxo-1-(pyridin-2-ylmethyl)-2,3-dihydro-1H-purin-7(6H)-yl)-N-(6-(2-(trifluoromethyl)pyrimidin-5-yl)pyridin-2-yl)acetamide]: the IC50 turned out to be 74 nM.

As for `Cc1ncc(-c2cccc(NC(=O)Cn3cnc4c3c(=O)n(Cc3ccon3)c(=O)n4C)n2)cc1C(F)(F)F` [Compound 239, 2-(1-(isoxazol-3-ylmethyl)-3-methyl-2,6-dioxo-2,3-dihydro-1H-purin-7(6H)-yl)-N-(6′-methyl-5′-(trifluoromethyl)-[2,3′-bipyridin]-6-yl)acetamide], the IC50 was 3 nM.

Turning to `CC(=O)Cn1c(=O)c2c(ncn2[C@@H](C)C(=O)Nc2csc(-c3cnc(N4CCC[C@H]4C(F)(F)F)nc3)n2)n(C)c1=O` [Compound 16, (S)-2-(3-methyl-2,6-dioxo-1-(2-oxopropyl)-2,3-dihydro-1H-purin-7(6H)-yl)-N-(2-(2-((S)-2-(trifluoromethyl)pyrrolidin-1-yl)pyrimidin-5-yl)thiazol-4-yl)propanamide], the half-inhibitory concentration (IC50) stood at 2 nM.

As to `C[C@@H](C(=O)Nc1csc(-c2cnc(N3CCC[C@H]3C(F)(F)F)nc2)n1)n1cnc2c1c(=O)n(CC#N)c(=O)n2C` [Compound 28, (S)-2-(1-(cyanomethyl)-3-methyl-2,6-dioxo-2,3-dihydro-1H-purin-7(6H)-yl)-N-(2-(2-((S)-2-(trifluoromethyl)pyrrolidin-1-yl)pyrimidin-5-yl)thiazol-4-yl)propanamide], the IC50 is 1 nM.

Take `CC(=O)Cn1c(=O)c2c(ncn2CC(=O)Nc2cccc(-c3ccc(F)c(F)c3)n2)n(C)c1=O` [Compound 182, N-(6-(3,4-difluorophenyl)pyridin-2-yl)-2-(3-methyl-2,6-dioxo-1-(2-oxopropyl)-1,2,3,6-tetrahydropurin-7-yl)acetamide]: the concentration for half-maximal inhibition (IC50) is 42 nM.

`CCC(=O)Cn1c(=O)c2c(ncn2[C@@H](C)C(=O)Nc2ccnc(-c3cnc(N4CC5C(C4)C5(F)F)nc3)n2)n(C)c1=O` (stereo partly drawn) [Compound 62, (2S)—N-(2′-(6,6-difluoro-3-azabicyclo[3.1.0]hexan-3-yl)-[2,5′-bipyrimidin]-4-yl)-2-(3-methyl-2,6-dioxo-1-(2-oxobutyl)-2,3-dihydro-1H-purin-7(6H)-yl)propanamide]: the IC50 came to 5 nM.

Take `Cc1noc(Cn2c(=O)c3c(ncn3CC(=O)Nc3cncc(-c4cnc(C(F)(F)F)c(C)c4)n3)n(C)c2=O)n1` [Compound 230, 2-(3-methyl-1-((3-methyl-1,2,4-oxadiazol-5-yl)methyl)-2,6-dioxo-2,3-dihydro-1H-purin-7(6H)-yl)-N-(6-(5-methyl-6-(trifluoromethyl)pyridin-3-yl)pyrazin-2-yl)acetamide]: the IC50 worked out at 14 nM.

As to `CCC(=O)Cn1c(=O)c2c(ncn2[C@@H](C)C(=O)Nc2cncc(-c3cnc(N4CC5C(C4)C5(F)F)nc3)n2)n(C)c1=O` (stereo partly drawn) [Compound 75, (2S)—N-(6-(2-(6,6-difluoro-3-azabicyclo[3.1.0]hexan-3-yl)pyrimidin-5-yl)pyrazin-2-yl)-2-(3-methyl-2,6-dioxo-1-(2-oxobutyl)-2,3-dihydro-1H-purin-7(6H)-yl)propanamide], the half-maximal inhibitory concentration (IC50) came to 3 nM.

With `Cc1noc(Cn2c(=O)c3c(ncn3CC(=O)Nc3csc(-c4cnc(C)c(C(F)(F)F)c4)n3)n(C)c2=O)n1` [Compound 252, 2-(3-methyl-1-((3-methyl-1,2,4-oxadiazol-5-yl)methyl)-2,6-dioxo-2,3-dihydro-1H-purin-7(6H)-yl)-N-(2-(6-methyl-5-(trifluoromethyl)pyridin-3-yl)thiazol-4-yl)acetamide], the IC50 is 1 nM.
